Experiments:
human MER (528-end) = target: T1, human MER (528-end) (Homo sapiens, UniProt Q12866); test: HTRF kinase activity biochemical assay, MER; conditions: recombinant kinase, 10 uM ATP, 30 minutes pre-incubation; read-out: HTRF MERTK IC50;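 further: phosphorylation of a biotin-tagged tyrosine kinase substrate detected by Eu3+-cryptate antibody and streptavidin-XL665 time-resolved fluorescence, read after 1 h at room temperature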
T1 construct: human MER (528-end); purchased Carnabio, Japan
T1 sequence (Q12866 528-999 limits assumed): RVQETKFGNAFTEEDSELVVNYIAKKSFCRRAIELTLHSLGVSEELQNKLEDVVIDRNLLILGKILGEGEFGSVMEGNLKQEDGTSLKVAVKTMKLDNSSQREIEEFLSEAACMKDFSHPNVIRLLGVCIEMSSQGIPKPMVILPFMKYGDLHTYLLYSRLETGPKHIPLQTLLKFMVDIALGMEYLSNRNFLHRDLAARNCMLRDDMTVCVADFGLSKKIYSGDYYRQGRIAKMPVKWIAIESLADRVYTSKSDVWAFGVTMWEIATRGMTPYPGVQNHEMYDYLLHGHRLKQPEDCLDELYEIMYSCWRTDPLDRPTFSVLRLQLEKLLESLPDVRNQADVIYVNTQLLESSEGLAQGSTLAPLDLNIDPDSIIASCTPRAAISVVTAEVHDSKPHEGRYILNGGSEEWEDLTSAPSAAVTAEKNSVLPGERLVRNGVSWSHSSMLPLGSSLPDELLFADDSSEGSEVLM

human AXL (473-end) = target: T2, human AXL (473-end) (Homo sapiens, UniProt P30530); test: HTRF kinase activity biochemical assay, AXL; conditions: recombinant kinase, 10 uM ATP, 30 minutes pre-incubation; read-out: HTRF AXL IC50;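 further: phosphorylation of a biotinylated tyrosine kinase substrate detected via Eu3+-cryptate anti-TK antibody and streptavidin-XL665, fluorescence read after a 1 h incubation at room temperature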
T2 construct: human AXL (473-end); purchased SignalChem, Canada
T2 sequence (P30530 473-894 limits assumed): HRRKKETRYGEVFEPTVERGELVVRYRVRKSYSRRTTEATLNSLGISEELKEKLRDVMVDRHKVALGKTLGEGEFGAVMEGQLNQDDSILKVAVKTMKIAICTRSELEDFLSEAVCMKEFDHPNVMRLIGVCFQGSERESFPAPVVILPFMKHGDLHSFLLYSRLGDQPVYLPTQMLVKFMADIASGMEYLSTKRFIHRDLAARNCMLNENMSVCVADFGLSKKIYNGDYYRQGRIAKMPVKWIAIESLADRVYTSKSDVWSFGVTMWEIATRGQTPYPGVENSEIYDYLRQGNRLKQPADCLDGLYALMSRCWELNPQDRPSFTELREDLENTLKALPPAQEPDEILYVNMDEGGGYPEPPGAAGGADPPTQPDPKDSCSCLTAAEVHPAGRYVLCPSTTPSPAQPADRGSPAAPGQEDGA

TYRO3 (455-end) = target: T3, TYRO3 (455-end) (Homo sapiens, UniProt Q06418); test: HTRF kinase activity biochemical assay, TYRO3; conditions: recombinant kinase, 10 uM ATP, 30 minutes pre-incubation; read-out: HTRF TYRO IC50;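 further: biotinylated tyrosine kinase substrate phosphorylation detected via streptavidin-XL665 and Eu3+-cryptate anti-phospho antibody time-resolved fluorescence, read after 1 h detection at room temperature, 384-well format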
T3 construct: TYRO3 (455-end); purchased SignalChem, Canada
T3 sequence (Q06418 455-890 limits assumed): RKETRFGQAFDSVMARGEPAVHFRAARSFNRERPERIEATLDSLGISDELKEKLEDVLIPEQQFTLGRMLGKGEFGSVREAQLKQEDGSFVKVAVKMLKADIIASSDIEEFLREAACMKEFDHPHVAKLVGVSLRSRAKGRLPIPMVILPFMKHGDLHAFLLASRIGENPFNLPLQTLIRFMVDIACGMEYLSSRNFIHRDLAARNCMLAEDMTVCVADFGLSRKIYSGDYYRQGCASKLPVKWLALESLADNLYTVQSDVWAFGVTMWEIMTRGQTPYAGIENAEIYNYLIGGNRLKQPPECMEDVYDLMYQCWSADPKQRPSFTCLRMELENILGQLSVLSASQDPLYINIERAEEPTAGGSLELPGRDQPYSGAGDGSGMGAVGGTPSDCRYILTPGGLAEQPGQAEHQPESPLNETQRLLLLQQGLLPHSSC

IC50 (human MER (528-end)) [nM] | IC50 (human AXL (473-end)) [nM] | IC50 (TYRO3 (455-end)) [nM] | Compound
34 | 60 | 2680 | C[Si](C)(C)CCOCn1cc(Nc2ncc(C3CN(c4nc5ccc(O)cc5o4)C3)nc2C(N)=O)cn1 [Example 0, 6-[1-(6-hydroxy-1,3-benzoxazol-2-yl)azetidin-3-yl]-3-[(1-{[2-(trimethylsilyl)ethoxy]methyl}-1H-pyrazol-4-yl)amino]pyrazine-2-carboxamide]
< 1 | 2 | 83 | CCc1ccc2nc(N3CC(c4cnc(Nc5cnn(C)c5)c(C(N)=O)n4)C3)oc2c1 [Example 5, 6-[1-(6-ethyl-1,3-benzoxazol-2-yl)azetidin-3-yl]-3-[(1-methyl-1H-pyrazol-4-yl)amino]pyrazine-2-carboxamide]
< 1 | 1.04 | 72 | Cn1cc(Nc2ncc(C3CN(c4nc5ccc(C6=CCCCC6)cc5o4)C3)nc2C(N)=O)cn1 [Example 6, 6-{1-[6-(cyclohex-1-en-1-yl)-1,3-benzoxazol-2-yl]azetidin-3-yl}-3-[(1-methyl-1H-pyrazol-4-yl)amino]pyrazine-2-carboxamide]
< 1 | 4 | 60 | Cn1cc(Nc2ncc(C3CN(c4nc5ccc(Br)cc5o4)C3)nc2C(N)=O)cn1 [Example 6A, 6-[1-(6-bromo-1,3-benzoxazol-2-yl)azetidin-3-yl]-3-[(1-methyl-1H-pyrazol-4-yl)amino]pyrazine-2-carboxamide]
3 | 6 | 680 | Cn1cc(Nc2ncc(C3CN(c4nc5ccc(C6CCCCC6)cc5o4)C3)nc2C(N)=O)cn1 [Example 7, 6-[1-(6-cyclohexyl-1,3-benzoxazol-2-yl)azetidin-3-yl]-3-[(1-methyl-1H-pyrazol-4-yl)amino]pyrazine-2-carboxamide]
2 | 7 | 280 | Cn1cc(Nc2ncc(C3CN(c4nc5ccc(-c6ccccc6)cc5o4)C3)nc2C(N)=O)cn1 [Example 8, 3-[(1-methyl-1H-pyrazol-4-yl)amino]-6-[1-(6-phenyl-1,3-benzoxazol-2-yl)azetidin-3-yl]pyrazine-2-carboxamide]
< 1 | < 1 | 110 | Cn1cc(Nc2ncc(C3CN(c4nc5ccc(C6CCCC6)cc5o4)C3)nc2C(N)=O)cn1 [Example 10, 6-[1-(6-cyclopentyl-1,3-benzoxazol-2-yl)azetidin-3-yl]-3-[(1-methyl-1H-pyrazol-4-yl)amino]pyrazine-2-carboxamide]
3 | 4 | 690 | Cn1cc(Nc2ncc(C3CN(c4nc5ccc(C6=CCCC6)cc5o4)C3)nc2C(N)=O)cn1 [Example 10A, 6-{1-[6-(cyclopent-1-en-1-yl)-1,3-benzoxazol-2-yl]azetidin-3-yl}-3-[(1-methyl-1H-pyrazol-4-yl)amino]pyrazine-2-carboxamide]
1 | 2 | 280 | Cn1cc(Nc2ncc(C3CN(c4nc5ccc(C6=CCOCC6)cc5o4)C3)nc2C(N)=O)cn1 [Example 11, 6-{1-[6-(3,6-dihydro-2H-pyran-4-yl)-1,3-benzoxazol-2-yl]azetidin-3-yl}-3-[(1-methyl-1H-pyrazol-4-yl)amino]pyrazine-2-carboxamide]
1 | 4 | 220 | Cn1cc(Nc2ncc(C3CN(c4nc5ccc(C(F)(F)F)cc5o4)C3)nc2C(N)=O)cn1 [Example 12, 3-[(1-methyl-1H-pyrazol-4-yl)amino]-6-{1-[6-(trifluoromethyl)-1,3-benzoxazol-2-yl]azetidin-3-yl}pyrazine-2-carboxamide]
2 | 3 | 120 | COC(=O)c1ccc2nc(N3CC(c4cnc(Nc5cnn(C)c5)c(C(N)=O)n4)C3)oc2c1 [Example 13, methyl 2-(3-{6-carbamoyl-5-[(1-methyl-1H-pyrazol-4-yl)amino]pyrazin-2-yl}azetidin-1-yl)-1,3-benzoxazole-6-carboxylate]
8 | 14 | 490 | NC(=O)c1nc(C2CN(c3nc4ccccc4o3)C2)cnc1Nc1cn[nH]c1 [Example 14, 6-[1-(1,3-benzoxazol-2-yl)azetidin-3-yl]-3-[(1H-pyrazol-4-yl)amino]pyrazine-2-carboxamide]
3 | 9 | 550 | Cn1cc(Nc2ncc(C3CN(c4nc5ccc(C6CCOC6)cc5o4)C3)nc2C(N)=O)cn1 (stereo not drawn) [Example 15, 3-[(1-methyl-1H-pyrazol-4-yl)amino]-6-{1-[6-(oxolan-3-yl)-1,3-benzoxazol-2-yl]azetidin-3-yl}pyrazine-2-carboxamide]
2 | 5 | 74 | Cn1cc(Nc2ncc(C3CN(c4nc5ccc(C6=CCOC6)cc5o4)C3)nc2C(N)=O)cn1 [Example 15A, 6-{1-[6-(2,5-dihydrofuran-3-yl)-1,3-benzoxazol-2-yl]azetidin-3-yl}-3-[(1-methyl-1H-pyrazol-4-yl)amino]pyrazine-2-carboxamide]
7 | 30 | 860 | Cn1cc(Nc2ncc(C3CN(c4nc5ccc(CO)cc5o4)C3)nc2C(N)=O)cn1 [Example 16, 6-{1-[6-(hydroxymethyl)-1,3-benzoxazol-2-yl]azetidin-3-yl}-3-[(1-methyl-1H-pyrazol-4-yl)amino]pyrazine-2-carboxamide]
– | 2 | 241 | Cn1cc(Nc2ncc(C3CN(c4nc5ccc(/C=C/C(C)(C)O)cc5o4)C3)nc2C(N)=O)cn1 [Example 17, 6-(1-{6-[(1E)-3-hydroxy-3-methylbut-1-en-1-yl]-1,3-benzoxazol-2-yl}azetidin-3-yl)-3-[(1-methyl-1H-pyrazol-4-yl)amino]pyrazine-2-carboxamide]
3710 | 5900 | > 12500 | Cn1cc(Nc2ncc(C3CN(c4nc5ccc(C(=O)O)cc5o4)C3)nc2C(N)=O)cn1 [Example 18A, 2-(3-f{6-carbamoyl-5-[(1-methyl-1H-pyrazol-4-yl)amino]pyrazin-2-yl}azetidin-1-yl)-1,3-benzoxazole-6-carboxylic acid]
29 | – | 980 | Cn1cc(Nc2ncc(C3CN(c4nc5ccc(O)cc5o4)C3)nc2C(N)=O)cn1 [Example 20, 6-[I1-(6-hydroxy-1,3-benzoxazol-2-yl)azetidin-3-yl]-3-[(1-methyl-1H-pyrazol-4-yl)amino]pyrazine-2-carboxamide]
< 1 | < 1 | 90 | COC/C=C/c1ccc2nc(N3CC(c4cnc(Nc5cnn(C)c5)c(C(N)=O)n4)C3)oc2c1 [Example 22, 6-(1-{6-[(1E)-3-methoxyprop-1-en-1-yl]-1,3-benzoxazol-2-yl}azetidin-3-yl)-3-[(1-methyl-1H-pyrazol-4-yl)amino]pyrazine-2-carboxamide]
< 1 | < 1 | 8 | Cn1cc(Nc2ncc(C3CN(c4nc5ccc(OCC6CC6)cc5o4)C3)nc2C(N)=O)cn1 [Example 23, 6-{1-[6-(cyclopropylmethoxy)-1,3-benzoxazol-2-yl]azetidin-3-yl}-3-[(1-methyl-1H-pyrazol-4-yl)amino]pyrazine-2-carboxamide]
150 | 210 | – | Cn1cc(Nc2ncc(C3CN(c4nc5ccc(OCC(=O)O)cc5o4)C3)nc2C(N)=O)cn1 [Example 73A, {[2-(3-f{6-carbamoyl-5-[(1-methyl-1H-pyrazol-4-yl)amino]pyrazin-2-yl}azetidin-1-yl)-1,3-benzoxazol-6-yl]oxy}acetic acid]
